In publication PMC9304199, “A small molecule CFTR potentiator restores ATP‐dependent channel gating to the cystic fibrosis mutant G551D‐CFTR” (British Journal of Pharmacology, 2022):
Where two headings read alike, the source gives them in different places.

Columns and labels:
[1] = biological target: F508del‐CFTR (Homo sapiens, UniProt P13569, DEL508-508); assay: F508del‐CFTR plasma membrane stability in FRT epithelia (Ussing chamber Isc after cycloheximide); format: cell-based; set-up: expressed in transfected cells; BHK cells from MD Amaral; settings: for acute potentiation of forskolin-stimulated CFTR-mediated Isc: DMSO-treated low temperature-rescued F508del‐CFTR FRT epithelia, t = 0 h, forskolin 10 μM, ivacaftor 1 μM, then CP‐628006 10 μM
Sequence of F508del‐CFTR (P13569 with tags, fused parts or gaps DEL508-508): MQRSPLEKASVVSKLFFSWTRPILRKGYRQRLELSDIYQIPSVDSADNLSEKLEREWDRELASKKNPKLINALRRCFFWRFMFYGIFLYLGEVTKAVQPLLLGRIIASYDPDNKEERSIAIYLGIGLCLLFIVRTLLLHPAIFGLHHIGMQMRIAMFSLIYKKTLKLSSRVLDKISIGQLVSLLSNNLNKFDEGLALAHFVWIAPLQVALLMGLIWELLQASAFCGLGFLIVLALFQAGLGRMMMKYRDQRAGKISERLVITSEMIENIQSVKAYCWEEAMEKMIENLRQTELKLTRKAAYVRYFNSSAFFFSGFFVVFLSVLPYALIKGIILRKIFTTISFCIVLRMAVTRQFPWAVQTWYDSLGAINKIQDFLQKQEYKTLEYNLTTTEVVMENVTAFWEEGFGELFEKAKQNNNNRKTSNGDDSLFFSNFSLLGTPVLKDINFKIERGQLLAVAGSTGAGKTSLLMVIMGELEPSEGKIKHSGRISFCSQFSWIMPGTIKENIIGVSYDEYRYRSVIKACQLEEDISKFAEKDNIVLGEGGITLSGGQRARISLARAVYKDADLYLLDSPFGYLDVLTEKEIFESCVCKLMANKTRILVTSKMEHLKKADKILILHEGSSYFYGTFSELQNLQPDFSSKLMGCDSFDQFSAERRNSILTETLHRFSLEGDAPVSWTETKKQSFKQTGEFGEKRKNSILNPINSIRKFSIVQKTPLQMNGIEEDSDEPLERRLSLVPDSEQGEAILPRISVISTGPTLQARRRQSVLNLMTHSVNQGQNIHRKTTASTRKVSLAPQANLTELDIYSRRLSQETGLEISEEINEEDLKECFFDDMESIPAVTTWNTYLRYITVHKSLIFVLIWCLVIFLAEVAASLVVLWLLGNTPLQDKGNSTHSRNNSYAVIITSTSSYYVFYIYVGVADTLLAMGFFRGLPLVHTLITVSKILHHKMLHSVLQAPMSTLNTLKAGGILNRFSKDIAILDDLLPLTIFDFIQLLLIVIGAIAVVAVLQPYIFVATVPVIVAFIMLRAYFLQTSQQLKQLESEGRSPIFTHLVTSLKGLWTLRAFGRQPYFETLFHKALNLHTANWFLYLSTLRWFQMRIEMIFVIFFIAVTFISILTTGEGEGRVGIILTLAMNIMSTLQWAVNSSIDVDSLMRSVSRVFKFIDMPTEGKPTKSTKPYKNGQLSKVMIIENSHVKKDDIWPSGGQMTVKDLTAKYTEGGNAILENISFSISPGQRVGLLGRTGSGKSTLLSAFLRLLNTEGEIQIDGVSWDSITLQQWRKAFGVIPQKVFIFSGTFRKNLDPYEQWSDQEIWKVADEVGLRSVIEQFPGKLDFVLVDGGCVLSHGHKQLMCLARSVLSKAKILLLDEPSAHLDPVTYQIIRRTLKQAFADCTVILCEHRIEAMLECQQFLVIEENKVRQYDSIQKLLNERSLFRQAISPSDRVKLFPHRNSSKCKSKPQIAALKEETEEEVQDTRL
Experimental: To evaluate the effects of CP‐628006 on the plasma membrane stability of F508del‐CFTR, we used a modification of the method described by Meng et al. ([2017]). After 48‐h incubation at 27°C to rescue the plasma membrane expression of F508del‐CFTR, FRT epithelia were treated with cycloheximide (50 μg·ml^−1) and DMSO or test small molecules, 15 min prior to t = 0 h. At t = 0, 2, 4, and 6 h after these treatments, F508del‐CFTR expressing FRT epithelia were mounted in Ussing chambers (Warner Instrument Corp., Dual Channel Chamber; Harvard Apparatus Ltd., Edenbridge, UK) and Isc responses recorded.
CFTR‐mediated Isc was recorded using a large Cl^− concentration gradient without permeabilizing the basolateral membrane. The solution bathing the basolateral membrane contained (mM): 140 NaCl, 5 KCl, 0.36 K2HPO4, 0.44 KH2PO4, 1.3 CaCl2, 0.5 MgCl2, 10 HEPES, and 4.2 NaHCO3, adjusted to pH 7.2 with Tris ([Cl^−], 149 mM). The solution bathing the apical membrane was identical to that of the basolateral solution with the exception that (mM): 133.3 Na gluconate + 2.5 NaCl and 5 K gluconate replaced 140 NaCl and 5 KCl, respectively, ([Cl^−], 14.8 mM). To compensate for the calcium buffering capacity of gluconate, we used 5.7‐mM Ca^2+ in the apical solution. All solutions were maintained at 37°C and bubbled continuously with 5% CO2.
After cancelling voltage offsets, we clamped transepithelial voltage (referenced to the basolateral solution) at 0 mV and recorded Isc continuously using an epithelial voltage‐clamp amplifier (Warner Instrument Corp., model EC‐825; Harvard Apparatus Ltd.), digitising data as described previously (Li et al., [2004]). The resistance of the filter and solutions, in the absence of cells, was subtracted from all measurements.

[2] = biological target: G551D‐CFTR (Homo sapiens, UniProt P13569, G551D); assay: Single-channel recording in excised inside-out membrane patches, G551D‐CFTR; format: biochemical; set-up: expressed in transfected cells; BHK cells from MD Amaral; settings: for enhancement of Po(app): each compound 10 μM, alone or together; for Emax: read-out: Maximal effect (%) (95% CI)
Sequence of G551D‐CFTR (P13569 whole entry G551D): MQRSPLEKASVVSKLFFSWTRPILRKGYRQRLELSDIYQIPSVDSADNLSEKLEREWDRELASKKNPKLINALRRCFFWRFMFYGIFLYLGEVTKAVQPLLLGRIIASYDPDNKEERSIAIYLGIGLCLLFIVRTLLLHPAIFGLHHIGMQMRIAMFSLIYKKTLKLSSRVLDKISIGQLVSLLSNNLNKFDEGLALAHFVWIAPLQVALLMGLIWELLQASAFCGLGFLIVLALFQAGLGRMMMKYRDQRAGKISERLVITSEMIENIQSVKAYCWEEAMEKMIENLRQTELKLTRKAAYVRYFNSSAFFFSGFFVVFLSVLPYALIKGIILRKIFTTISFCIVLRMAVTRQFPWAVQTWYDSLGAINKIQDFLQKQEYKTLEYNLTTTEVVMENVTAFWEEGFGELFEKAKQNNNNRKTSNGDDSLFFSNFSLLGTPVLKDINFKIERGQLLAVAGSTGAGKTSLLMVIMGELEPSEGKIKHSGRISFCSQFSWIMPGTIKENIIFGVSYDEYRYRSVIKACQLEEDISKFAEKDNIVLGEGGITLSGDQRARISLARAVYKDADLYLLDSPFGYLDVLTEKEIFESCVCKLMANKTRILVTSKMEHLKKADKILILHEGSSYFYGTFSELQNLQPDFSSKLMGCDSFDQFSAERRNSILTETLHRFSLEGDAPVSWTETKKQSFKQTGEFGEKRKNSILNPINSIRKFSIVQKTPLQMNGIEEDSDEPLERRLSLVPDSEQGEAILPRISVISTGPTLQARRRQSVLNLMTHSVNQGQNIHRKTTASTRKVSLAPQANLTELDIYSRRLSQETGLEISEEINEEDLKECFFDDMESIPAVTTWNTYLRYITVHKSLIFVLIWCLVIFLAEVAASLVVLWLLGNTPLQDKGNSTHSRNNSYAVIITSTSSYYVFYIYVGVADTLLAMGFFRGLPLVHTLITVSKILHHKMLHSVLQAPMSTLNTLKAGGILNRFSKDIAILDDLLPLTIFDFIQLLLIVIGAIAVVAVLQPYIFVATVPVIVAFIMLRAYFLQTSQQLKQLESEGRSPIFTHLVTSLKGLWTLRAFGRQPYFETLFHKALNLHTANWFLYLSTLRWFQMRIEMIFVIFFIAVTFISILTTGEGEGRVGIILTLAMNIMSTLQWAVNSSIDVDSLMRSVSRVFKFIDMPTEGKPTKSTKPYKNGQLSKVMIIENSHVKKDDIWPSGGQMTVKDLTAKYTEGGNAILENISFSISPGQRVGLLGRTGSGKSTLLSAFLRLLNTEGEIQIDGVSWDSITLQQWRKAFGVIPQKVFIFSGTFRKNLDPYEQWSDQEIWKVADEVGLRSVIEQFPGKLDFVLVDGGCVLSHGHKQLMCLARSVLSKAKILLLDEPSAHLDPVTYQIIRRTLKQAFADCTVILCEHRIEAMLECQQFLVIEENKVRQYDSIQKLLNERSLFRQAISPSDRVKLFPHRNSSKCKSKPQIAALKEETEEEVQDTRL
Experimental: For CFTR studies using automated electrophysiology and single-channel recording, we used baby hamster kidney (BHK) cells (RRID:CVCL_1915) and human embryonic kidney (HEK) 293 cells (RRID:CVCL_0045) stably expressing wild-type human CFTR and the CFTR variants F508del- and […] et al., [2002]; Xu et al., [2014]). […] HEK cells expressing CFTR variants were generated using the Flp-InTM system as described above for F508del- and G551D-CFTR-expressing FRT cells. They were cultured in Dulbecco's modified Eagle's medium (glucose, 1.5 g·L^-1; sodium pyruvate, 110 mg·L^-1) supplemented with 10% FBS (PAA Laboratories), GlutaMAXTM and hygromycin-B (150 μg·ml^-1; InvitrogenTM, Thermo Fisher Scientific) at 37°C in a humidified atmosphere with 5% CO2. Prior to study, F508del-CFTR expressed in HEK cells was trafficked to the plasma membrane by low temperature incubation (27°C for 24-72 h). The single-channel behaviour of human CFTR in excised membrane patches from different mammalian cell lines heterologously expressing CFTR is equivalent (wild-type CFTR, Chen et al., [2009]; F508del-CFTR, Bose et al., [2019]; and G551D-CFTR, J Liu, Y Wang, Z Cai, and DN Sheppard, unpublished observations). CFTR Cl^- channels were recorded in excised inside-out membrane patches using an Axopatch 200B patch-clamp amplifier and pCLAMP software (version 10.3) (RRID:SCR_011323) (both from Molecular Devices, San Jose, CA, USA) (Sheppard & Robinson, [1997]). […] Within 2 min after membrane patch excision, we added the catalytic subunit of protein kinase A (PKA; 75 nM) and ATP (1 mM) to the intracellular solution to activate CFTR Cl^- channels. To minimise channel rundown, we added PKA and millimolar concentrations of ATP to all intracellular solutions and clamped voltage at -50 mV. […] We reduced the ATP concentration when testing CFTR potentiators on wild-type CFTR to observe their effects more clearly. […] Instead, specific interventions with CFTR potentiators were compared with the pre-intervention control period made with the same concentration of ATP and PKA, but without test compounds. […] F508del-CFTR, n ≤ 4; G551D-CFTR, n ≤ 5). To determine channel number, we used the maximum number of simultaneous channel openings observed during an experiment (Cai et al., [2006]). To minimise errors, we used experimental conditions that robustly potentiate channel activity and verified that recordings were of sufficient length to ascertain the correct number of channels ([…] et al., [1994]). […] Despite our precautions, we cannot exclude the possibility of unobserved G551D-CFTR Cl^- channels in excised membrane patches causing Po values for G551D-CFTR to be […]. Therefore, Po values for G551D-CFTR are expressed as apparent Po (Po(app)) values. Single-channel currents were directly acquired to a computer hard disc after filtering at a corner frequency (f c) of 500 Hz with an eight-pole Bessel filter (model LHBF-48×; npi electronic GmbH, Tamm, Germany) and digitising at a sampling rate of 5 kHz using a Digidata 1440A interface (Molecular Devices) and pCLAMP software. To measure single-channel current amplitude (i), Gaussian distributions were fit to current amplitude histograms. For Po and burst analyses, lists of open- and closed-times were created using a half-amplitude crossing criterion for event detection and dwell-time histograms constructed as previously described (Sheppard & Robinson, [1997]); transitions < 1 ms were excluded from the analysis (eight-pole Bessel filter rise time [T 10-90] ~ 0.73 ms at f c = 500 Hz). Histograms were fitted with one or more component exponential functions using the maximum likelihood method. […] The mean interburst interval (TIBI) was calculated using the equation (Cai et al., [2006]): (1) Po=Tb/TMBD+TIBI, where T b = (mean burst duration) × (open probability within a burst). Mean burst duration (T MBD) and open probability within a burst (Po[burst]) were determined directly from experimental data using pCLAMP software. […]

[3] = G551D‐CFTR Cl− channels, excised inside-out patches, 23°C, data normalised to ivacaftor 1 μM, read-out: EC50 (μM) (95% CI)
[4] = G551D‐CFTR, ATP 1 mM, PKA 75 nM, ~23°C
[5] = G551D‐CFTR, ATP 1 mM, PKA 75 nM, ~23°C, read-out: EC50 for potentiation of Po(app)
[6] = G551D‐CFTR, compound 10 μM, ATP 0.1–3 mM

SMILES	acute potentiation of forskolin-stimulated CFTR-mediated Isc [1]	EC50 [2, 3]	Po(app) max [2, 4]	EC50 [2, 5]	ATP-dependence of G551D‐CFTR activity in presence of compound [2, 6]	enhancement of Po(app) ([2]; G551D‐CFTR, ATP 1 mM)	Emax [2]	decline of CFTR-mediated Isc over 6 h ([1]; low temperature-rescued F508del‐CFTR FRT epithelia treated with cycloheximide 50 μg·ml−1 and compound 10 μM, 37°C)	Po(app) max of ATP-dependence in presence of compound [2, 6]
CC(C)(C)c1cc(C(C)(C)C)c(NC(=O)c2c[nH]c3ccccc3c2=O)cc1O [ivacaftor, reference compound]	potentiated two‐fold	0.036 µM	0.31	0.14 µM	unaffected by altering the ATP concentration	44 ± 12 fold	96.7%	–	–
Cc1ncccc1CNC(=O)c1ccc2c(c1)CC[C@H]1C[C@](O)(CCC(F)(F)F)CC[C@]21Cc1ccccc1 (racemic) [CP‐628006, rac‐(4bR,7R,8aS)‐4b‐benzyl‐7‐hydroxy‐N‐((2‐methylpyridin‐3‐yl)methyl)‐7‐(3,3,3‐trifluoropropyl)‐4b,5,6,7,8,8a,9,10‐octahydrophenanthrene‐2‐carboxamide]	had little additional effect	0.17 µM	0.38	0.38 µM	–	71 ± 30 fold	145%	slower	0.30
